From patent EP4800013A1, “PARG INHIBITOR” (Shanghai Qilu Pharmaceutical Research and Development …, priority 2023, dated 2025)

Columns and labels:
KURAMOCHI cells = test: Inhibition of proliferation of KURAMOCHI cells (CellTiter-Glo, intracellular ATP); type: cell-based; conditions: 168 h, incubated for 7 days, read-out: IC50 against KURAMOCHI cells
Description: In this experiment, the inhibitory effect of the compounds of the present disclosure on the proliferation of the cancer cell line KURAMOCHI was evaluated by measuring intracellular ATP levels using a bioluminescent assay, and the half maximal inhibitory concentration (IC50) was determined.
RPMI 1640 medium (Cat. No. 11875-093), fetal bovine serum (10099-141), and 100× Pen/Strep (15070-063) were purchased from GIBCO. CellTiter-Glo Luminescent Cell Viability Assay reagent (Cat. No. G7573) was purchased from Promega.
• 1) Day 1: KURAMOCHI cells were counted using a cell counter and seeded into a 96-well culture plate at a density of 4000 cells per well in 100 µL medium. The plate was incubated overnight in an incubator (37°C, 5% CO2). • 2) Day 2: Using a D300e digital dispenser (TECAN), 500 nL of serially diluted test compounds of the present disclosure (starting at 10 µM, a total of 9 concentrations, 1:4 dilution) were added to the cells in the culture plate. The final concentration of DMSO was 0.5%. The cell culture plate was incubated for 7 days in a cell culture incubator (37°C, 5% CO2). Control group 1 received only medium and DMSO (100% inhibition group). Control group 2 received only DMSO (0% inhibition group). The final concentration of DMSO in both groups was 0.5%. • 3) Day 9: 100 µL of CellTiter-Glo reagent was added to each well. The plate was shaken at 500 rpm for 2 minutes, centrifuged at 1000 rpm for 1 minute, and then incubated at room temperature in the dark for 10 minutes to stabilize the luminescence signal. • 4) Luminescence signals were measured using an EnVision microplate reader (PerkinElmer). • 5) Data analysis was performed using GraphPad Prism 8. The IC50 values of the compounds of the present disclosure were calculated as follows. The CTG signal values were analyzed. The average inhibition rate of control group 1 (100% inhibition group) was set as the relative inhibition rate of 100%. The average inhibition rate of control group 2 (0% inhibition group) was set as the relative inhibition rate of 0%. The CTG signal values were converted into relative inhibition rates. The inhibition percentage (inhibition%) for each concentration of the compounds of the present disclosure was calculated according to the following formula: Inhibition% = (b−x)/(b−a)*100%; [formula] • a = CTG value (highest concentration), b = CTG value (blank well), x = CTG value (test well). • IC50 was calculated using GraphPad Prism 8. • (1) The concentration and inhibition rate corresponding to each well were recorded. Statistical calculation was performed using Log10 (compound concentration). • (2) The data were input into GraphPad Prism 8 and Analysis was selected. • (3) Nonlinear regression (curve fit) was selected. • (4) Log (inhibitor) vs. response - Variable slope was selected. • (5) The calculation formula was selected, and the calculation was performed according to the following formula: Y = Bottom + (Top - Bottom) / (1 + 10 ^ ((LogIC50 - X) * HillSlope)); X: log of dose or concentration; Y: response; Top and Bottom: maximum and minimum response. • (6) The IC50 values were calculated by fitting the data. Table 16: Inhibitory effect of the compounds of the present disclosure on the proliferation of KURAMOCHI cells

PARG = biological target: T1, PARG (Homo sapiens, UniProt Q86W56); test: Enzymatic inhibitory activity against PARG, HTRF assay; type: biochemical; conditions: HTRF; PARylated PARP1 protein as substrate; 60 minutes at room temperature; read-out: IC50 against PARG enzyme
T1 construct: made in house
Description: In this experiment, the enzymatic inhibitory activity of the compounds of the present disclosure against PARG was determined using an HTRF (homogeneous time-resolved fluorescence) assay.
HTRF assay reagents were purchased from PerkinElmer (Cat. Nos. 61HISTLB and 610SAXLB). The purified protein was prepared in-house.
PARG enzyme reaction buffer: 50 mM Tris (pH 7.4), 0.1 mg/mL BSA, 3 mM EDTA, 0.4 mM EGTA, 1 mM DTT, 50 mM KCl, and 0.01% Tween 20.
• 1) Using an ultra-micro pipette, the compounds of the present disclosure were serially diluted (starting at 10 µM with 3- to 5-fold serial dilutions) and added to a 384-well reaction plate, with each concentration tested in duplicate wells. Control group 1 was added with 10 µM control compound (100% inhibition group). Control group 2 was added with DMSO (0% inhibition group). After compound addition, the 384-well plate was centrifuged at 1000 rpm for 1 minute. • 2) 2.5 µL of PARG protein was added to each well and incubated with the compounds of the present disclosure at room temperature for 15 minutes, followed by centrifugation at 1000 rpm for 1 minute. • 3) 2.5 µL of PARylated PARP1 protein was added to each well and incubated at room temperature for 60 minutes, followed by centrifugation at 1000 rpm for 1 minute. • 4) 5 µL of His-Tb & SA-XL665 HTRF assay reagents were added to each well and incubated at room temperature for 60 minutes, followed by centrifugation at 1000 rpm for 1 minute. • 5) […] were measured using a PHERAstar FSX microplate reader from BMG. • 6) Data analysis was performed using GraphPad Prism 8. The IC50 values of the compounds of the present disclosure were calculated as follows. […] The average value of duplicate wells in control group 2 (0% inhibition group) was set as the relative inhibition rate of 0%. The HTRF signal values were converted into relative inhibition rates. The IC50 values of the compounds were calculated by fitting the data to a four-parameter logistic model. Table 15: Enzymatic inhibitory activity of the compounds of the present disclosure against PARG

T1 sequence (Q86W56 whole entry): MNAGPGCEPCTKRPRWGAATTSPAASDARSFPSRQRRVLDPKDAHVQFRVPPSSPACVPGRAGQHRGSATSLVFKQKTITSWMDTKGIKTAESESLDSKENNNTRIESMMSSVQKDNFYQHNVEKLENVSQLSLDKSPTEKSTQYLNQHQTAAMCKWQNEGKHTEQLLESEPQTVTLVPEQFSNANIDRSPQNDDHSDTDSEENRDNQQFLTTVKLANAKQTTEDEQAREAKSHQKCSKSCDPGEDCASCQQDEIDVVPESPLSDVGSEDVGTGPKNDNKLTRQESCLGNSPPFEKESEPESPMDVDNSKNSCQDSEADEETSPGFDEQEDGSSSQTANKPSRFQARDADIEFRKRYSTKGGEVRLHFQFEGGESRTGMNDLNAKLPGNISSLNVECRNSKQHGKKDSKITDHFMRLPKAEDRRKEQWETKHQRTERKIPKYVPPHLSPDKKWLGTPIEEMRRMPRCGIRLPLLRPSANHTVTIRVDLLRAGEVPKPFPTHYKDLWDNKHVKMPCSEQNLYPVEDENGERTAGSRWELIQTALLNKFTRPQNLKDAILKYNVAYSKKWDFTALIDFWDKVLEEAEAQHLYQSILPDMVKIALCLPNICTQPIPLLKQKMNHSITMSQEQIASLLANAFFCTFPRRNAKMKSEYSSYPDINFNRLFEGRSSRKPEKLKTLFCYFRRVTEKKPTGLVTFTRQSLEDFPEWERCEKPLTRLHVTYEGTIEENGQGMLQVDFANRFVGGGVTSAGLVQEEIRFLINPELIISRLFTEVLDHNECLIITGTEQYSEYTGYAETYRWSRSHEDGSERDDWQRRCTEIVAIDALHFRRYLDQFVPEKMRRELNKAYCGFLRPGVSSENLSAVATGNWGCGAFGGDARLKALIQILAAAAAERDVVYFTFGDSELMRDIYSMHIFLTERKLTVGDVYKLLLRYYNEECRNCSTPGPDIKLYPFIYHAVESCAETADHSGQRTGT

| SMILES | IC50 (KURAMOCHI cells) | IC50 (PARG) |
| --- | --- | --- |
| CC(C)Oc1nc2c(N3CCN(C(=O)C(C)C)CC3)cc(S(=O)(=O)NC3(C#N)CC3)cc2n1-c1nnc(C(F)F)s1 [Compound 057L] | 8 nM | 8.6 nM |
| CN(C)C(=O)N1CCN(c2cc(S(=O)(=O)NC3(C#N)CC3)cc3c2nc(OC2CC2)n3-c2nnc(C(F)F)s2)CC1 [Compound 057M] | 6 nM | 2.8 nM |
| CC(C)C(=O)N1CCN(c2cc(S(=O)(=O)NC3(C#N)CC3)cc3c2nc(OC2COC2)n3-c2nnc(C(F)F)s2)CC1 [Compound 057N] | 9 nM | 8.3 nM |
| CC(C)C(=O)N1CCN(c2cc(S(=O)(=O)NC3(C#N)CC3)cc3c2nc(OC2CC2)n3-c2nnc(C(F)F)s2)CC1 [Compound 057Q] | 7 nM | 5.1 nM |
| CN(C)C(=O)N1CCC(c2cc(S(=O)(=O)NC3(C#N)CC3)cc3c2ncn3-c2nnc(C(F)F)s2)CC1 [Compound 059C] | 20 nM | 6.5 nM |
| CC(C)C(=O)N1CCC(c2cc(S(=O)(=O)NC3(C#N)CC3)cc3c2ncn3-c2nnc(C(F)F)s2)CC1 [Compound 059D] | 40 nM | 28.8 nM |
| C[C@H]1CN(c2cc(S(=O)(=O)NC3(CF)CC3)cc3c2c2nccnc2n3-c2nnc(C(F)F)s2)C[C@H](C)N1 [Compound 065I] | 5 nM | 1.8 nM |
| [2H]C([2H])([2H])C1(NS(=O)(=O)c2cc(N3C[C@H](C)N[C@@H](C)C3)c3c4nccnc4n(-c4nnc(C(F)F)s4)c3c2)CC1 [Compound 065J] | 7 nM | 2.4 nM |
| C[C@H]1CN(c2cc(S(=O)(=O)NC3(C#N)CC3)cc3c2c2nccnc2n3-c2nnc(C(F)F)s2)C[C@H](C)N1 [Compound 065K] | 22 nM | 6.3 nM |
| C[C@H]1CN(c2cc(S(=O)(=O)NC3(C)COC3)cc3c2c2nccnc2n3-c2nnc(C(F)F)s2)C[C@H](C)N1 [Compound 065L] | 18 nM | 5.5 nM |
| C[C@H]1CN(c2cc(S(=O)(=O)NC3(C#N)CC3)cc3c2n2ncnc2n3-c2nnc(C(F)F)s2)C[C@H](C)N1 [Compound 065N] | 9 nM | 7.3 nM |
| [2H]C([2H])([2H])C1(NS(=O)(=O)c2cc(N3C[C@H](C)N[C@@H](C)C3)c3c(c2)n(-c2nnc(C(F)F)s2)c2ncnn32)CC1 [Compound 065O] | 3 nM | 3.1 nM |
| C[C@H]1CN(c2cc(S(=O)(=O)NC3(C)COC3)cc3c2n2ncnc2n3-c2nnc(C(F)F)s2)C[C@H](C)N1 [Compound 065P] | 7 nM | 5.8 nM |
| C[C@H]1CN(c2cc(S(=O)(=O)NC3(C)CC3)cc3c2n2nc(C(C)(C)O)nc2n3-c2nnc(C(F)F)s2)C[C@H](C)N1 [Compound 065T] | 13 nM | 1.5 nM |
| COCc1nc2n(-c3nnc(C(F)F)s3)c3cc(S(=O)(=O)NC4(C)CC4)cc(N4C[C@H](C)N[C@@H](C)C4)c3n2n1 [Compound 065U] | 2 nM | 0.5 nM |
| C[C@H]1CN(c2cc(S(=O)(=O)NC3(C)CC3)cc3c2n2nc(Cl)nc2n3-c2nnc(C(F)F)s2)C[C@H](C)N1 [Compound 065X] | 4 nM | 0.5 nM |

| SMILES | IC50 (KURAMOCHI cells) | IC50 (PARG) |
| --- | --- | --- |
| CC(C)c1nc2n(-c3nnc(C(F)F)s3)c3cc(S(=O)(=O)NC4(C)CC4)cc(N4C[C@H](C)N[C@@H](C)C4)c3n2n1 [Compound 065Y] | 6 nM | 0.8 nM |
| C[C@H]1CN(c2cc(S(=O)(=O)NC3(C)CC3)cc3c2n2nc(C4CC4)nc2n3-c2nnc(C(F)F)s2)C[C@H](C)N1 [Compound 065Z] | 4 nM | 1 nM |
| C=CCn1c(=O)n(-c2nnc(C(F)F)s2)c2cc(S(=O)(=O)NC3(C#N)CC3)cc(N3CCN(C(=O)N4CCC4)CC3)c21 [Compound 067B] | 15 nM | 6.9 nM |
| C=CCn1c(=O)n(-c2nnc(C(F)F)s2)c2cc(S(=O)(=O)NC3(C#N)CC3)cc(N3CCN(C(=O)N4CCOCC4)CC3)c21 [Compound 067G] | 26 nM | 8.7 nM |
| C=CCn1c(=O)n(-c2nnc(C(F)F)s2)c2cc(S(=O)(=O)NC3(C#N)CC3)cc(N3CCN(c4nccn4C)CC3)c21 [Compound 067J] | 21 nM | 7.8 nM |
| [2H]C([2H])([2H])OC(C)(C)C(=O)N1CCN(c2cc(S(=O)(=O)NC3(C#N)CC3)cc3c2n(CC=C)c(=O)n3-c2nnc(C(F)F)s2)CC1 [Compound 067LD] | 5 nM | 2.2 nM |
| C=CCn1c(=O)n(-c2nnc(C(F)F)s2)c2cc(S(=O)(=O)NC3(C#N)CC3)cc(N3CCN(C(=O)C(C)(C)OC)CC3)c21 [Compound 067L] | 4 nM | 4.9 nM |
| [2H]C([2H])([2H])OC1(C(=O)N2CCN(c3cc(S(=O)(=O)NC4(C#N)CC4)cc4c3n(CC=C)c(=O)n4-c3nnc(C(F)F)s3)CC2)CC1 [Compound 067ND] | 3 nM | 2.3 nM |
| C=CCn1c(=O)n(-c2nnc(C(F)F)s2)c2cc(S(=O)(=O)NC3(C#N)CC3)cc(N3CCN(C(=O)C4(OC)CC4)CC3)c21 [Compound 067N] | 3 nM | 3.1 nM |
| C=CCn1c(=O)n(-c2nnc(C(F)F)s2)c2cc(S(=O)(=O)NC3(C#N)CC3)cc(N3CCN(C(=O)C(C)(C)N)CC3)c21 [Compound 067P] | 74 nM | 5.2 nM |
| C=CCn1c(=O)n(-c2nnc(C(F)F)s2)c2cc(S(=O)(=O)NC3(C#N)CC3)cc(N3CCN(C(=O)C(C)(C)NC)CC3)c21 [Compound 067Q] | 13 nM | 5 nM |
| C=CCn1c(=O)n(-c2nnc(C(F)F)s2)c2cc(S(=O)(=O)NC3(C#N)CC3)cc(N3CCN(S(=O)(=O)C4CC4)CC3)c21 [Compound 067R] | 6 nM | 3.4 nM |
| C=CCn1c(=O)n(-c2nnc(C(F)F)s2)c2cc(S(=O)(=O)NC3(C#N)CC3)cc(N3CCN(C(=O)C4CC4)CC3)c21 [Compound 067S] | 14 nM | 13.3 nM |
| C=CCn1c(=O)n(-c2nnc(C(F)F)s2)c2cc(S(=O)(=O)NC3(C#N)CC3)cc(N3CCN(C(=O)C(C)(C)C)CC3)c21 [Compound 067T] | 11 nM | 16 nM |
| C=CCn1c(=O)n(-c2nnc(C(F)F)s2)c2cc(S(=O)(=O)NC3(C#N)CC3)cc(N3CCN(C(=O)C4CCC4)CC3)c21 [Compound 067U] | 21 nM | 20 nM |
| C=CCn1c(=O)n(-c2nnc(C(F)F)s2)c2cc(S(=O)(=O)NC3(C#N)CC3)cc(N3CCN(C(=O)C4COC4)CC3)c21 [Compound 067V] | 83 nM | 13.4 nM |
